The values that follow come from patent US20230386662A1, “RAPID AND DIRECT IDENTIFICATION AND DETERMINATION OF URINE BACTERIAL SUSCEPTIBILITY TO ANTIBIOTICS” (B. G. NEGEV TECHNOLOGIES AND APPLICATIONS LTD., AT …, priority 2020, published 2023).

What all share (assay type): cell-based
In assay [1] the test system is Klebsiella pneumonia isolates. As to the kind of experiment: Susceptibility of Klebsiella pneumonia urine isolates to antibiotics by the classical method VITEK2. The following applies: Klebsiella pneumonia isolates from urine of UTI patients, 220 isolates studied. From the text: (§1) The present inventors studied 1005 different bacterial isolates derived directly from urine samples of UTIs patients, as follows:
(§2) These isolates were identified at a species level as well as their known susceptibility to most common used antibiotics, using the classical methods MALDI-TOF and VITEK2, respectively.
FIGS. 7A-7B present the average second derivative IR spectra of Klebsiella pneumonia, in the 900-1800 cm^−1 region grouped as sensitive of resistant to: Amoxicillin (panel a), Ceftazidime (panel c), Ceftriaxone (panel e) and Cefuroxime (panel g). The ROC curves of the classification of these antibiotics are respectively presented in panels (b), (d), (f) and (h). […] The performances of the RF classifier for the classification between Klebsiella pneumonia isolates sensitive and resistant to the tested antibiotics are summarized in Table 4 similar to E. coli (Table 3).

Another assay deals with E. coli isolates. The assay can be described thus: Susceptibility of E. coli urine isolates to antibiotics by the classical method VITEK2. Further details: key to Bacterial susceptibility category label: sensitive (S); resistant (R). The following applies: for R (number of isolates resistant to the antibiotic) / S (number of isolates sensitive to the antibiotic): E. coli isolates from urine of UTI patients, 567 isolates studied.
Excerpt: as §1, §2
The samples where then processed for spectrometric measurements, by purifying the infecting bacteria directly from the urine as described herein above. A subset consisting of ten E. coli isolates was randomly selected, as detailed in table 1.

In assay [2] the test system is Pseudomonas aeruginosa isolates. As to the kind of experiment: Susceptibility of Pseudomonas aeruginosa urine isolates to antibiotics by the classical method VITEK2. The settings on record: Pseudomonas aeruginosa isolates from urine of UTI patients, 121 isolates studied.
Excerpt: as §1
These isolates were identified at a species level as well as their known susceptibility to most common used antibiotics, using the classical methods MALDI-TOF and VITEK2, respectively. […]

In the case of `CC1(C)S[C@@H]2[C@H](NC(=O)[C@H](N)c3ccc(O)cc3)C(=O)N2[C@H]1C(=O)O` [Amoxicillin], the “R (number of isolates resistant to the antibiotic)” value in assay [1] turned out to be 61; in the assay on E. coli isolates, 170. In addition, the “S (number of isolates sensitive to the antibiotic)” value in assay [1] is 159; in the assay on E. coli isolates, 397.
With `CC1(C)S[C@@H]2[C@H](NC(=O)[C@H](N)c3ccccc3)C(=O)N2[C@H]1C(=O)O` [Ampicillin], the “Bacterial susceptibility category label” value in the assay on E. coli isolates (E. coli isolate 306358) is “S”; with E. coli isolates (E. coli isolate 306365), “R”; in the assay on E. coli isolates (E. coli isolate 306366), “R”; in the assay with E. coli isolates (E. coli isolate 306382) it was “S”; in the assay with E. coli isolates (E. coli isolate 307201) it was “R”; with E. coli isolates (E. coli isolate 307212), “S”. Further, the “Bacterial susceptibility category label” value is recorded as “R” in the assay with E. coli isolates (E. coli isolate 307234), “S” in the assay with E. coli isolates (E. coli isolate 307368), “R” in the assay with E. coli isolates (E. coli isolate 307395) and “R” in the assay with E. coli isolates (E. coli isolate 307402). The “R (number of isolates resistant to the antibiotic)” value in the assay with E. coli isolates is recorded as 384. For the same compound, in the assay with E. coli isolates, the “S (number of isolates sensitive to the antibiotic)” value is reported as 181.
For the compound `CC(C)(O/N=C(\C(=O)N[C@@H]1C(=O)N2C(C(=O)[O-])=C(C[n+]3ccccc3)CS[C@H]12)c1csc(N)n1)C(=O)O` [Ceftazidime], the “R (number of isolates resistant to the antibiotic)” value in assay [2] is recorded as 19; in assay [1] it was 91; in the assay with E. coli isolates it was 159. Besides, the “S (number of isolates sensitive to the antibiotic)” value in assay [2] amounted to 78; in assay [1], 129; with E. coli isolates, 408.
Consider `CO/N=C(\C(=O)N[C@@H]1C(=O)N2C(C(=O)O)=C(CSc3nc(=O)c(=O)[nH]n3C)CS[C@H]12)c1csc(N)n1` [Ceftriaxone], for which the “R (number of isolates resistant to the antibiotic)” value in assay [1] is on record as 87; in the assay on E. coli isolates, 160. Also, the “S (number of isolates sensitive to the antibiotic)” value in assay [1] was determined as 133; with E. coli isolates, 407. Moreover, the “Bacterial susceptibility category label” value in the assay on E. coli isolates (E. coli isolate 306358) is “S”; in the assay on E. coli isolates (E. coli isolate 306365), “S”; in the assay on E. coli isolates (E. coli isolate 306366), “R”; in the assay on E. coli isolates (E. coli isolate 306382), “S”; in the assay with E. coli isolates (E. coli isolate 307201), “S”; in the assay with E. coli isolates (E. coli isolate 307212), “S”. For the same compound, the “Bacterial susceptibility category label” value in the assay on E. coli isolates (E. coli isolate 307234), in the assay on E. coli isolates (E. coli isolate 307368), in the assay with E. coli isolates (E. coli isolate 307395) and in the assay on E. coli isolates (E. coli isolate 307402) was “S” each time.
With `CO/N=C(\C(=O)N[C@@H]1C(=O)N2C(C(=O)OC(C)OC(C)=O)=C(COC(N)=O)CS[C@H]12)c1ccco1` (stereo partly drawn) [Cefuroxime-Axetil], the “R (number of isolates resistant to the antibiotic)” value in assay [1] is 95; in the assay with E. coli isolates, 190. Besides, the “S (number of isolates sensitive to the antibiotic)” value in assay [1] worked out at 112; with E. coli isolates, 351.
In the case of `CO/N=C(\C(=O)N[C@@H]1C(=O)N2C(C(=O)O)=C(COC(N)=O)CS[C@H]12)c1ccco1` [Cefuroxime], the results for the “R (number of isolates resistant to the antibiotic)” value (in assay [1]; in the assay with E. coli isolates) were 99 and 196, respectively. In addition, the “S (number of isolates sensitive to the antibiotic)” value in assay [1] turned out to be 121; in the assay on E. coli isolates it was 371. Also, the “Bacterial susceptibility category label” value with E. coli isolates (E. coli isolate 306358) is “S”; in the assay on E. coli isolates (E. coli isolate 306365), “S”; in the assay with E. coli isolates (E. coli isolate 306366) it was “R”; with E. coli isolates (E. coli isolate 306382) it was “S”; in the assay with E. coli isolates (E. coli isolate 307201), “S”; in the assay with E. coli isolates (E. coli isolate 307212), “S”. Further, the “Bacterial susceptibility category label” value in the assay with E. coli isolates (E. coli isolate 307234), in the assay on E. coli isolates (E. coli isolate 307368), with E. coli isolates (E. coli isolate 307395) and in the assay with E. coli isolates (E. coli isolate 307402) was “S” each time.
With `CC1=C(C(=O)O)N2C(=O)[C@@H](NC(=O)[C@H](N)c3ccccc3)[C@H]2SC1` [Cephalexin], in assay [1], the “R (number of isolates resistant to the antibiotic)” value is listed as 90 and the “S (number of isolates sensitive to the antibiotic)” value is given as 121. Also, in the assay on E. coli isolates, the “R (number of isolates resistant to the antibiotic)” value is listed as 167 and the “S (number of isolates sensitive to the antibiotic)” value came to 372.
As to `C[C@@H](O)[C@H]1C(=O)N2C(C(=O)O)=C(SCCN=CN)C[C@H]12` [Imipenem], in assay [2], the “R (number of isolates resistant to the antibiotic)” value was 18 and the “S (number of isolates sensitive to the antibiotic)” value amounted to 72.
Turning to `C[C@H]1COc2c(N3CCN(C)CC3)c(F)cc3c(=O)c(C(=O)O)cn1c23` [Levofloxacin], in assay [2], the “R (number of isolates resistant to the antibiotic)” value was 33 and the “S (number of isolates sensitive to the antibiotic)” value was found to be 63.
Taken in the same sequence, the figures for `C[C@@H](O)[C@H]1C(=O)N2C(C(=O)O)=C(S[C@@H]3CN[C@H](C(=O)N(C)C)C3)[C@H](C)[C@H]12` [Meropenem] were 20 and 77.
With `O=C1CN(/N=C/c2ccc([N+](=O)[O-])o2)C(=O)N1` [Nitrofurantoin], in assay [1], the “R (number of isolates resistant to the antibiotic)” value was 150 and the “S (number of isolates sensitive to the antibiotic)” value turned out to be 62. Further, in the assay on E. coli isolates, the “R (number of isolates resistant to the antibiotic)” value amounted to 47 and the “S (number of isolates sensitive to the antibiotic)” value is reported as 502.
As for `CCN1CCN(C(=O)N[C@@H](C(=O)N[C@@H]2C(=O)N3[C@@H]2SC(C)(C)[C@@H]3C(=O)O)c2ccccc2)C(=O)C1=O` [Piperacillin], in assay [2], the “R (number of isolates resistant to the antibiotic)” value amounted to 23 and the “S (number of isolates sensitive to the antibiotic)” value was 59.
Take `NC[C@H]1O[C@H](O[C@H]2[C@H](O)[C@@H](O[C@H]3O[C@H](CO)[C@@H](O)[C@H](N)[C@H]3O)[C@H](N)C[C@@H]2N)[C@H](N)C[C@@H]1O` [Tobramycin]: in assay [2], the “R (number of isolates resistant to the antibiotic)” value is 15 and the “S (number of isolates sensitive to the antibiotic)” value amounted to 79.
On to Amoxicillin ClavulA, for which the “Bacterial susceptibility category label” value in the assay on E. coli isolates (E. coli isolate 306358), in the assay with E. coli isolates (E. coli isolate 306382), in the assay on E. coli isolates (E. coli isolate 307201), in the assay with E. coli isolates (E. coli isolate 307212), in the assay with E. coli isolates (E. coli isolate 307234) and with E. coli isolates (E. coli isolate 307368) was “S” in each case. Also, the “Bacterial susceptibility category label” value in the assay with E. coli isolates (E. coli isolate 307395) is listed as “S”.
For Gentamicin, the “R (number of isolates resistant to the antibiotic)” value in assay [2] worked out at 17; in assay [1], 41; with E. coli isolates it was 68. For the same compound, the “S (number of isolates sensitive to the antibiotic)” value in assay [2] was determined as 80; in assay [1], 179; in the assay on E. coli isolates, 498.
Turning to Piperacill-Tazobactam, the figures for the “R (number of isolates resistant to the antibiotic)” value (in assay [2]; in assay [1]; with E. coli isolates) were 10, 41 and 58, respectively. The “S (number of isolates sensitive to the antibiotic)” value in assay [2] is given as 76; in assay [1], 179; in the assay on E. coli isolates, 506.
Regarding Sulfamethoxa-Trimeth, the figures for the “R (number of isolates resistant to the antibiotic)” value (in assay [1]; with E. coli isolates) were 92 and 194, respectively. In addition, the “S (number of isolates sensitive to the antibiotic)” value was found to be 126 in assay [1] and 371 in the assay with E. coli isolates. Further, the “Bacterial susceptibility category label” value in the assay with E. coli isolates (E. coli isolate 306358) is on record as “S”; with E. coli isolates (E. coli isolate 306365), “R”; in the assay with E. coli isolates (E. coli isolate 306366), “S”; in the assay on E. coli isolates (E. coli isolate 306382), “S”; with E. coli isolates (E. coli isolate 307201), “R”; in the assay with E. coli isolates (E. coli isolate 307212), “R”. For the same compound, the “Bacterial susceptibility category label” value was “R” with E. coli isolates (E. coli isolate 307234), “S” with E. coli isolates (E. coli isolate 307368), “R” in the assay on E. coli isolates (E. coli isolate 307395) and “S” in the assay with E. coli isolates (E. coli isolate 307402).
